Measured values taken from patent publication US7741337B2, “Azonafide derivatives, methods for their production and pharmaceutical compositions therefrom” (Unibioscreen S.A., priority 2005, dated 2010).
Counter-ions that a name gives are not always drawn. Like-named read-outs stand apart in the source and are kept apart here.

Columns and labels:
[1] = test system: human cancer cell lines Hs683, U-373MG, HCT-15, LoVo, A549 and MCF-7; experiment: MTT test, effect on overall cell growth (mean of six cell lines, examples 3 to 26); type: cell-based; details: mean of six cell lines Hs683, U-373MG, A549, MCF-7, 72 hours incubation, range of molar concentrations resulting in 50% inhibition of overall tumor cells growth
Description: (§1) MTT tests were performed in order to rapidly, i.e. within 5 days, measure the effect of azonafide derivatives of this invention on the overall cell growth. The test measures the number of metabolically active living cells that are able to transform the yellow product 3-(4,5-dimethylthiazol-2-yl)-2,5-diphenyl tetrazolium bromide (herein referred as MTT) into the blue product formazan dye by mitochondrial reduction. The amount of formazan obtained at the end of the experiment, measured by means of a spectrophotometer, is directly proportional to the number of living cells. Optical density determination thus enables a quantitative measurement of the effect of the investigated compounds as compared to the control condition (untreated cells) and/or to other reference compounds.
(§2) Height human cancer cell lines described in table 1 were used in the following MTT tests. These cell lines cover six histological cancer types, being prostate, glioma, pancreas, colon, lung and breast cancers. Cells were allowed to grow in 96-well micro-wells with a flat bottom with an amount of 100 μl of cell suspension per well with 1,000 to 4,000 cells/well depending on the cell type used. Each cell line was seeded in a well known MEM 5% serum culture medium.
(§3) The detailed experimental procedure was as following: after a 24-hour period of incubation at 37° C., the culture medium was replaced by 100 μl of fresh medium in which the compound to be tested was dissolved at the following molar concentrations: 10^−9 M, 5.10^−9 M, 10^−8 M, 5.10^−8 M, 10^−7 M, 5.10^−7 M, 10^−6 M, 5.10^−6 M and 10^−5 M. Each experiment was repeated 6 times.
(§4) After 72 hours of incubation at 37° C. with (experimental conditions) or without (control condition) the compound to be tested, the medium was replaced by 100 μl MTT dissolved in RPMI at a concentration of 1 mg/ml. The micro-wells were subsequently incubated during 3 hours at 37° C. and centrifuged at 400 g during 10 minutes. MTT was removed and formazan crystals formed were dissolved in 100 μl DMSO. The micro-wells were shaken for 5 minutes and read on a spectrophotometer at wavelengths of 570 nm (maximum formazan absorbance) and 630 nm (back-ground noise).
(§5) For each experimental condition, the mean optical density was calculated, as well as the percentage of remaining living cells in comparison with the control.
(§6) IC50 values for compounds of examples 3 to 26 were obtained on cell lines Hs683, U-373MG, HCT-15, LoVo, A549 and MCF-7 described in Table 1. IC50 values for compounds from examples 27 to 45 were obtained on cell lines PC3, U-373MG, BxPC3, LoVo, A549 and MCF-7 described in Table 1.

[2] = test system: U-373 MG (Glioma cancer) cells; experiment: Effect on cell migration, U-373MG; type: cell-based; details: Homo sapiens, U373 MG, p value in same cell, read-out: Maximum effects (cell migration); for Emax at 1 µM: at 10^−6 M; for Emax at 0.1 µM: at 10^−7 M
Description: (§7) Cells of different cancer lines, i.e. U-373 MG (Glioma cancer), PC3 (prostate cancer and A549 (Lung cancer) were seeded on culture flask 48 hours before the migration experiment. On the test day, cells were treated with or without the azonafide derivatives mentioned in table 3 in closed Falcon dishes containing a buffered medium at a controlled temperature (37.0±0.1° C.) for 12 or 22 hours, as noted in the right column of table 3. The azonafide derivatives were used at three non-cytotoxic concentrations (10^−6 M, 10^−7, 10^−8 M). Migration of the cells was observed by means of a CCD-camera mounted on a phase-contrast microscope. Statistical analysis of the migration, with the non-parametric Mann-Whitney test, was established for 25% and 50% of the most motile cells and for the entire cell population.

[3] = test system: PC3 (prostate cancer) cells; experiment: Effect on cell migration, PC3; type: cell-based; details: Homo sapiens, 22 hours on the 25% of most motile cells, p value in same cell, read-out: Maximum effects (cell migration); for Emax at 0.01 µM: at 10^−8 M
Description: as §7

[4] = test system: U-373 MG, PC-3 and/or A549 cancer cells; experiment: Effect on cell migration, summary of table 3; type: cell-based, human; details: for migration level of cancer cells: U-373 MG, PC-3 and/or A549 cancer cells at the non-cytotoxic concentrations of this study; for cell migration activity compared with the closest compounds known in the art: comparison drawn from table 3
Description: as §7

[5] = test system: A549 (Lung cancer) cells; experiment: Effect on cell migration, A549; type: cell-based; details: Homo sapiens, p value in same cell, read-out: Maximum effects (cell migration); for Emax at 1 µM: at 10^−6 M; for Emax at 0.1 µM: at 10^−7 M; for Emax at 0.01 µM: at 10^−8 M
Description: as §7

[6] = test system: human cancer cell lines PC3, U-373MG, BxPC3, LoVo, A549 and MCF-7; experiment: MTT test, effect on overall cell growth (mean of six cell lines, examples 27 to 45); type: cell-based; details: mean of six cell lines PC3, U-373MG, A549, MCF-7, 72 hours incubation, range of molar concentrations resulting in 50% inhibition of overall tumor cells growth
Description: as §1, §2, §3, §4, §5, §6

[7] = 22 hours on the 25% of most motile cells

Row | SMILES | IC50 [1] | migration level of cancer cells [4] | cell migration activity compared with the closest compounds known in the art [4] | Emax at 1 µM [5, 7] | also measured
1 | CN(C)CCN1C(=O)c2cccc3cc4cccc(N)c4c(c23)C1=O [Example 3, 11-amino-2-[2-(dimethylamino)ethyl]-1H-dibenzo[de,h]isoquinoline-1,3(2H)-dione, reference compound] | 5 to 10 µM |  |  |  | Emax at 1 µM [2, 7]: -31%
2 | CN(C)CCN1C(=O)c2cccc3cc4c(/N=C/c5ccc6c(c5)OCO6)cccc4c(c23)C1=O [Example 8, 8-{[(1E)-1,3-benzodioxol-5-ylmethylidene]amino}-2-[2-(dimethylamino)ethyl]-1H-dibenzo[de,h]isoquinoline-1,3(2H)-dione] | 1 to 5 µM | induced a decrease in the migration level | significantly greater cell migration activity than the closest compounds known in the art, or similar cell migration activity at significantly lower concentrations |  | Emax at 1 µM [2, 7]: -30%; Emax at 0.01 µM [3]: -29%
3 | COC(=O)Nc1cccc2cc3cccc4c3c(c12)C(=O)N(CCN(C)C)C4=O [Example 9, methyl {2-[2-(dimethylamino)ethyl]-1,3-dioxo-2,3-dihydro-1H-dibenzo[de,h]isoquinolin-11-yl}carbamate] | 5 to 10 µM | induced a decrease in the migration level | significantly greater cell migration activity than the closest compounds known in the art, or similar cell migration activity at significantly lower concentrations | -28% | Emax at 0.1 µM ([2]; 12 and 22 hours on the 25% of most motile cells): -31%; Emax at 1 µM ([5]; 12 hours on the 25% of most motile cells): -40%
4 | CN(C)CCN1C(=O)c2cccc3cc4cccc(NC(=O)CCCCl)c4c(c23)C1=O [Example 10, 4-chloro-N-{2-[2-(dimethylamino)ethyl]-1,3-dioxo-2,3-dihydro-1H-dibenzo[de,h]isoquinolin-11-yl}butanamide] | 1 to 5 µM | induced a decrease in the migration level |  | -24% | 
5 | CN(C)CCN1C(=O)c2cccc3cc4cccc(NC(=O)Nc5ccc6c(c5)OCO6)c4c(c23)C1=O [Example 12, 1-(1,3-benzodioxol-5-yl)-3-{2-[2-(dimethylamino)ethyl]-1,3-dioxo-2,3-dihydro-1H-dibenzo[de,h]isoquinolin-11-yl}urea] | 5 to 10 µM | induced a decrease in the migration level |  |  | Emax at 0.1 µM [2, 7]: -20%
6 | CN(C)CCN1C(=O)c2cccc3cc4c(NC(=O)Nc5ccc6c(c5)OCO6)cccc4c(c23)C1=O [Example 14, 1-(1,3-benzodioxol-5-yl)-3-{2-[2-(dimethylamino)ethyl]-1,3-dioxo-2,3-dihydro-1H-dibenzo[de,h]isoquinolin-8-yl}urea] | > 10 µM | induced a decrease in the migration level |  | -24% | 
7 | CN(C)CCN1C(=O)c2cccc3cc4c(NC(=O)Nc5ccc6c(c5)OCO6)cccc4c(c23)C1=O [Example 15, 1-(1,3-benzodioxol-5-yl)-3-{2-[2-(dimethylamino)ethyl]-1,3-dioxo-2,3-dihydro-1H-dibenzo[de,h]isoquinolin-8-yl}urea hydrochloride] |  |  | significantly greater cell migration activity than the closest compounds known in the art, or similar cell migration activity at significantly lower concentrations |  | Emax at 1 µM [2, 7]: -51%
8 | CCOC(=O)Nc1cccc2cc3cccc4c3c(c12)C(=O)N(CCN(C)C)C4=O [Example 17, ethyl {2-[2-(dimethylamino)ethyl]-1,3-dioxo-2,3-dihydro-1H-dibenzo[de,h]isoquinolin-11-yl}carbamate] | > 10 µM | induced a decrease in the migration level | significantly greater cell migration activity than the closest compounds known in the art, or similar cell migration activity at significantly lower concentrations |  | Emax at 0.1 µM [2, 7]: -42%; Emax at 0.1 µM [5, 7]: -44%
9 | CN(C)CCN1C(=O)c2cccc3cc4cccc(NC(=O)Oc5ccc(F)cc5)c4c(c23)C1=O [Example 24, 4-fluorophenyl {2-[2-(dimethylamino)ethyl]-1,3-dioxo-2,3-dihydro-1H-dibenzo[de,h]isoquinolin-11-yl}carbamate] | > 10 µM | induced a decrease in the migration level | significantly greater cell migration activity than the closest compounds known in the art, or similar cell migration activity at significantly lower concentrations |  | Emax at 0.01 µM [5, 7]: -31%
10 | CCCCCCCCOC(=O)Nc1cccc2cc3cccc4c3c(c12)C(=O)N(CCN(C)C)C4=O [Example 25, octyl {2-[2-(dimethylamino)ethyl]-1,3-dioxo-2,3-dihydro-1H-dibenzo[de,h]isoquinolin-11-yl}carbamate] | 5 to 10 µM | induced a decrease in the migration level |  |  | Emax at 0.1 µM [5, 7]: -28%; Emax at 0.01 µM [3]: -21%
11 | C=CCOC(=O)Nc1cccc2cc3cccc4c3c(c12)C(=O)N(CCN(C)C)C4=O [Example 26, allyl {2-[2-(dimethylamino)ethyl]-1,3-dioxo-2,3-dihydro-1H-dibenzo[de,h]isoquinolin-11-yl}carbamate] |  | induced a decrease in the migration level | significantly greater cell migration activity than the closest compounds known in the art, or similar cell migration activity at significantly lower concentrations |  | Emax at 0.01 µM [5, 7]: -29%
12 | CC(C)COC(=O)Nc1cccc2cc3cccc4c3c(c12)C(=O)N(CCN(C)C)C4=O [Example 27, isobutyl {2-[2-(dimethylamino)ethyl]-1,3-dioxo-2,3-dihydro-1H-dibenzo[de,h]isoquinolin-11-yl}carbamate] |  | induced a decrease in the migration level |  | -28% | IC50 [6]: > 10 µM
13 | CCCCOC(=O)Nc1cccc2cc3cccc4c3c(c12)C(=O)N(CCN(C)C)C4=O [Example 29, n-butyl {2-[2-(dimethylamino)ethyl]-1,3-dioxo-2,3-dihydro-1H-dibenzo[de,h]isoquinolin-11-yl}carbamate] |  | induced a decrease in the migration level | significantly greater cell migration activity than the closest compounds known in the art, or similar cell migration activity at significantly lower concentrations |  | IC50 [6]: > 10 µM; Emax at 0.1 µM [5, 7]: -33%; Emax at 1 µM ([3]; at 10^−6 M): -22%
